In patent US11926826B2, “Twist signaling inhibitor compositions and methods of using the same” (City of Hope, priority 2016, dated 2024):

System: SUM 1315 cells
Test: Wound healing assay, SUM 1315
Type: cell-based, human
Conditions: YTZ3-15 transfection; compared to siQ
Experimental: Wound Healing Assay. To examine direction cell migration in vitro wound healing assays were performed as described previously. In summary, SUM 1315 cells (parental, eGFP+luc, shScram, shTwistA, and shTwistB) were grown in the conditions described above (2.1) in 6-well tissue culture plates. Once cells reached 80% confluency, a sterile 200 μl pipette tip was used to scratch a line in the monolayer of cells. Images were taken immediately after the scratch and at several time points thereafter using a Nikon TE-2000S microscope and SPOT Advanced software (Diagnostic Instruments, Sterling Heights, MI). Care was taken to always capture images in the same location for each time point. Additionally, SUM 1315 cells were transfected with siQ, siTwistA, or siTwistB using YTZ3-15 at a 50 nM final concentration. Cells were incubated with YTZ3-15+siRNA for 24 hours at 37° C., 5% CO2, and 90% humidity in a tissue culture incubator; the plates were then scratched with the 200 μl pipette tip.

si419: anti-TWIST siRNA; passenger 5′-GGACAAGCUGAGCAAGAUU-3′ (SEQ ID No: 1), guide 5′-AAUCUUGCUCAGCUUGUCCUU-3′ (SEQ ID No: 2) (listed as RNA, chemistry not fully specified)
directional migration: decreased directional migration
